Data from US20260201008A1, “SECRETIN-DERIVED GLP1R SELECTIVE AGONISTS” (GUBRA A/S, priority 2023, published 2026).
Like-named read-outs stand apart in the source and are kept apart here. Numbered stars: 1 amine (or outer) side, 2 acyl side, 3 side chain; on linkers, the order of the positions; unused ones are H or OH. Square brackets hold non-standard residues; d marks the D form. Side chains are listed from the residue outwards. Peptide text beside a SMILES is read from it. * marks the point of attachment. C20 diacid = O=C(O)CCCCCCCCCCCCCCCCCCC(=O)*; γGlu = O=C(O)[C@H](CCC(=O)[*:2])N[*:1]; AEEA = NCCOCCOCC(=O)O; Aib = CC(C)(N)C(=O)O

Key:
GLP1R = GLP1R (Homo sapiens, UniProt P43220); experiment: hGLP1R potency, cAMP accumulation in CHO-K1 cells stably overexpressing hGLP1R; assay type: cell-based; design: host or cells: CHO-K1; conditions: for SCTR EC50/GLP1R EC50 ratio: cAMP accumulation in CHO-K1 cells; for Selectivity: SCTR EC50/GLP1R EC50 ratio
Method in brief: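 EC50 derives from variable-slope nonlinear regression of cAMP HTRF signal, with purified peptides tested as 11 three-fold dilutions in duplicate. Assay: hGLP1R-overexpressing CHO-K1 cells, 0.5 mM IBMX, 0.05% casein in DPBS, 30 min room-temperature stimulation, GLP-1(7-36) as reference agonist.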

SCTR = SCTR (Homo sapiens, UniProt P47872); experiment: hSCTR potency, cAMP accumulation in CHO-K1 cells stably overexpressing hSCTR; assay type: cell-based; design: alternatively Euroscreen ES-712-AF; FAST-0161L; host or cells: CHO-K1
Method in brief: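 EC50 derived from variable-slope nonlinear regression on 11-point, 3-fold series run in duplicate (crude peptides: 5 points, 10-fold, n=1). Compound stimulation lasted 30 min at room temperature in casein/IBMX-containing DPBS (0.05%, 0.5 mM), 2000 cells/well; cAMP detected by time-resolved FRET after one hour.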

[1] = Turbidity of crude library peptides (absorbance at 600 nm); assay type: physicochemical; conditions: Physical stability of peptides
Method in brief: (§1)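 Turbidity is the absorbance at 600 nm, taken before heating. Fibril signal is the mean ThT emission at 480 nm (450 nm excitation), read every 10 min over 72 h at 40° C with 700 rpm shaking between reads. Peptides at 267 μM, pH 4.0 acetate or pH 7.0 phosphate buffer (50 mM), 4 μM ThT final.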

[2] = Fibril formation of crude library peptides (Thioflavin T); assay type: physicochemical; design: key: average ThT fluorescence emission at 480 nm (ex 450 nm), raw units; conditions: Physical stability of peptides
Method in brief: as §1

[3] = cAMP accumulation, CHO-K1 cells overexpressing hGLP1R, read-out: hGLP1R pEC50 (converted)
[4] = selectivity for hGLP1R over hSCTR
[5] = cAMP accumulation, CHO-K1 cells overexpressing hSCTR, read-out: hSCTR pEC50 (converted)
[6] = cAMP accumulation, CHO-K1 cells overexpressing hGLP1R, read-out: pEC50 hGLPR1 (converted)
[7] = cAMP accumulation, CHO-K1 cells overexpressing hSCTR, read-out: pEC50 hSCTR (converted)

GLP1R, sequence (P43220 24-463): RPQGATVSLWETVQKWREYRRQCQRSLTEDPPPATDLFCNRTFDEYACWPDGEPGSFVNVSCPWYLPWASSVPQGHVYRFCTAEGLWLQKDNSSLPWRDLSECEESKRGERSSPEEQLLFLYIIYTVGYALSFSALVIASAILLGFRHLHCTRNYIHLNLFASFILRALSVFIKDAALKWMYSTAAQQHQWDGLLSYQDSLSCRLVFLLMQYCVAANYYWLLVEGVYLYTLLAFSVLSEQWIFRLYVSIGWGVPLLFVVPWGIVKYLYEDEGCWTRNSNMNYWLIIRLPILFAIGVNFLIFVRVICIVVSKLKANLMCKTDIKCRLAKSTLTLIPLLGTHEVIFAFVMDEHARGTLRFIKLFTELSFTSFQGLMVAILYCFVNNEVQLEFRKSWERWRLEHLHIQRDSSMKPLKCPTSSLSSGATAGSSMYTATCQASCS
SCTR, sequence (P47872 23-440): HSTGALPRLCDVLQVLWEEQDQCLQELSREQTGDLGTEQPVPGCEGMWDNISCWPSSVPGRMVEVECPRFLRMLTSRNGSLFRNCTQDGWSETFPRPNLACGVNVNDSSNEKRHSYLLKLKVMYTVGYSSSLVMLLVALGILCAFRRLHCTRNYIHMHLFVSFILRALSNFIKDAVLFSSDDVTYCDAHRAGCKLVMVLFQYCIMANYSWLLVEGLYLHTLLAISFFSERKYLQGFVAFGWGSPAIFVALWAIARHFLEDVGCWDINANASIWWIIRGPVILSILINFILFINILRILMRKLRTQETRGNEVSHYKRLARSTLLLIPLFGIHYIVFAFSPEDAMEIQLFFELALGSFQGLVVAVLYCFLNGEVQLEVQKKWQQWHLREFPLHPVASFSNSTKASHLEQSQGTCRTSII

Structure (SMILES) | EC50 (GLP1R; cAMP accumulation, CHO-K1 cells stably overexpressing hGLP1R, read-out: hGLP1R potency (pEC50) (converted)) [nM] | SCTR EC50/GLP1R EC50 ratio (GLP1R; selectivity ratio, hSCTR vs hGLP1R) | EC50 (SCTR; cAMP accumulation, CHO-K1 cells stably overexpressing hSCTR, read-out: hSCTR potency (pEC50) (converted)) [nM] | Turbidity (pH 7) [1] | Fibril formation [2] | EC50 (GLP1R; [3]) [nM] | SCTR EC50/GLP1R EC50 ratio (GLP1R; [4]) | EC50 (SCTR; [5]) [nM] | Selectivity (GLP1R) | EC50 (GLP1R; [6]) [nM] | EC50 (SCTR; [7]) [nM] | EC50 (GLP1R) [nM] | EC50 (SCTR) [nM]
CC(C)C[C@H](NC(=O)[C@H](Cc1ccc(O)cc1)NC(=O)[C@H](CO)NC(=O)[C@H](Cc1c[nH]c2ccccc12)NC(=O)[C@H](CC(=O)O)NC(=O)[C@H](CO)NC(=O)[C@@H](NC(=O)[C@H](Cc1ccccc1)NC(=O)[C@@H](NC(=O)CNC(=O)[C@H](CCC(=O)O)NC(=O)C(C)(C)NC(=O)[C@@H](N)Cc1c[nH]cn1)[C@@H](C)O)[C@@H](C)O)C(=O)N[C@@H](CCCCNC(=O)COCCOCCNC(=O)COCCOCCNC(=O)CC[C@H](NC(=O)CCCCCCCCCCCCCCCCCCC(=O)O)C(=O)O)C(=O)N[C@@H](CCC(=O)O)C(=O)N[C@@H](CCC(=O)O)C(=O)N[C@@H](C)C(=O)NC(C)(C)C(=O)N[C@@H](CC(C)C)C(=O)N[C@@H](CCC(N)=O)C(=O)N[C@@H](CCCNC(=N)N)C(=O)N[C@@H](Cc1ccccc1)C(=O)N[C@@H](CC(C)C)C(=O)N[C@@H](CCC(=O)O)C(=O)N[C@@H](Cc1c[nH]cn1)C(=O)N[C@@H](CC(C)C)C(=O)N[C@H](C(N)=O)C(C)C [compound 185] (H-H[Aib]EGTFTSDWSYLK([AEEA-AEEA-γGlu-C20 diacid])EEA[Aib]LQRFLEHLV-NH2) | 0.00631 | 7444 | 50.1 | 0.08 | 4198 |  |  |  |  |  |  |  | 
CC(C)C[C@H](NC(=O)[C@H](Cc1ccccc1)NC(=O)[C@H](CCCNC(=N)N)NC(=O)[C@H](CCC(N)=O)NC(=O)[C@H](CO)NC(=O)C(C)(C)NC(=O)[C@H](C)NC(=O)[C@H](CCC(=O)O)NC(=O)[C@H](CCC(=O)O)NC(=O)[C@H](CCCCNC(=O)COCCOCCNC(=O)COCCOCCNC(=O)CC[C@H](NC(=O)CCCCCCCCCCCCCCCCCCC(=O)O)C(=O)O)NC(=O)[C@H](CC(C)C)NC(=O)[C@H](Cc1ccc(O)cc1)NC(=O)[C@H](CO)NC(=O)[C@@H](NC(=O)[C@H](CC(=O)O)NC(=O)[C@H](CO)NC(=O)[C@@H](NC(=O)[C@H](Cc1ccccc1)NC(=O)[C@@H](NC(=O)CNC(=O)[C@H](CCC(=O)O)NC(=O)C(C)(C)NC(=O)[C@@H](N)Cc1c[nH]cn1)[C@@H](C)O)[C@@H](C)O)C(C)C)C(=O)N[C@@H](CCC(=O)O)C(=O)N[C@@H](Cc1c[nH]cn1)C(=O)N[C@@H](CC(C)C)C(=O)N[C@H](C(N)=O)C(C)C [compound 134] (H-H[Aib]EGTFTSDVSYLK([AEEA-AEEA-γGlu-C20 diacid])EEA[Aib]SQRFLEHLV-NH2) |  |  |  | 0.08 | 3061 | 0.00794 | 303145 | 2510 |  |  |  |  | 
CC(C)C[C@H](NC(=O)[C@H](Cc1ccccc1)NC(=O)[C@H](CCCNC(=N)N)NC(=O)[C@H](CCC(N)=O)NC(=O)[C@H](CO)NC(=O)[C@H](C)NC(=O)[C@H](C)NC(=O)[C@H](CCC(=O)O)NC(=O)[C@H](CCC(=O)O)NC(=O)[C@H](CCCCNC(=O)COCCOCCNC(=O)COCCOCCNC(=O)CC[C@H](NC(=O)CCCCCCCCCCCCCCCCCCC(=O)O)C(=O)O)NC(=O)[C@H](CC(C)C)NC(=O)[C@H](Cc1ccc(O)cc1)NC(=O)[C@H](CO)NC(=O)[C@@H](NC(=O)[C@H](CC(=O)O)NC(=O)[C@H](CO)NC(=O)[C@@H](NC(=O)[C@H](Cc1ccccc1)NC(=O)[C@@H](NC(=O)CNC(=O)[C@H](CCC(=O)O)NC(=O)C(C)(C)NC(=O)[C@@H](N)Cc1c[nH]cn1)[C@@H](C)O)[C@@H](C)O)C(C)C)C(=O)N[C@@H](CCC(=O)O)C(=O)N[C@@H](Cc1c[nH]cn1)C(=O)N[C@@H](CC(C)C)C(=O)N[C@H](C(N)=O)C(C)C [compound 75] (H-H[Aib]EGTFTSDVSYLK([AEEA-AEEA-γGlu-C20 diacid])EEAASQRFLEHLV-NH2) |  |  |  | 0.08 | 9457 |  |  |  | 133506 | 0.0251 | 3160 |  | 
CC(C)C[C@H](NC(=O)[C@H](CCC(=O)O)NC(=O)[C@H](CCCCNC(=O)COCCOCCNC(=O)COCCOCCNC(=O)CC[C@H](NC(=O)CCCCCCCCCCCCCCCCCCC(=O)O)C(=O)O)NC(=O)[C@H](CC(C)C)NC(=O)[C@H](CCCNC(=N)N)NC(=O)[C@H](CO)NC(=O)[C@@H](NC(=O)[C@H](CC(=O)O)NC(=O)[C@H](CO)NC(=O)[C@@H](NC(=O)[C@H](Cc1ccccc1)NC(=O)[C@@H](NC(=O)CNC(=O)[C@H](CCC(=O)O)NC(=O)C(C)(C)NC(=O)[C@@H](N)Cc1c[nH]cn1)[C@@H](C)O)[C@@H](C)O)C(C)C)C(=O)N[C@@H](C)C(=O)N[C@@H](C)C(=O)NC(C)(C)C(=O)N[C@@H](CCC(N)=O)C(=O)N[C@@H](CCCNC(=N)N)C(=O)N[C@@H](Cc1ccccc1)C(=O)N[C@@H](CC(C)C)C(=O)N[C@@H](CCC(=O)O)C(=O)N[C@@H](Cc1c[nH]cn1)C(=O)N[C@@H](CC(C)C)C(=O)N[C@H](C(N)=O)C(C)C [compound 10] (H-H[Aib]EGTFTSDVSRLK([AEEA-AEEA-γGlu-C20 diacid])ELAA[Aib]QRFLEHLV-NH2) |  |  |  | 0.08 | 6765 |  |  |  | 2365 | 0.2 | 501 |  | 
CC(C)C[C@H](NC(=O)[C@H](Cc1ccccc1)NC(=O)[C@H](CCCNC(=N)N)NC(=O)[C@H](CCC(N)=O)NC(=O)[C@H](CO)NC(=O)[C@H](C)NC(=O)[C@H](C)NC(=O)[C@H](Cc1ccccc1)NC(=O)[C@H](CCC(=O)O)NC(=O)[C@H](CCCCNC(=O)COCCOCCNC(=O)COCCOCCNC(=O)CC[C@H](NC(=O)CCCCCCCCCCCCCCCCCCC(=O)O)C(=O)O)NC(=O)[C@H](CC(C)C)NC(=O)[C@H](Cc1ccccc1)NC(=O)[C@H](CO)NC(=O)[C@@H](NC(=O)[C@H](CC(=O)O)NC(=O)[C@H](CO)NC(=O)[C@@H](NC(=O)[C@H](Cc1ccccc1)NC(=O)[C@@H](NC(=O)CNC(=O)[C@H](CCC(=O)O)NC(=O)C(C)(C)NC(=O)[C@@H](N)Cc1c[nH]cn1)[C@@H](C)O)[C@@H](C)O)C(C)C)C(=O)N[C@@H](CCC(=O)O)C(=O)N[C@@H](Cc1c[nH]cn1)C(=O)N[C@@H](CC(C)C)C(=O)N[C@H](C(N)=O)C(C)C [compound 91] (H-H[Aib]EGTFTSDVSFLK([AEEA-AEEA-γGlu-C20 diacid])EFAASQRFLEHLV-NH2) |  |  |  | 0.42 | 260000 | 0.316 | 101438 | 31600 |  |  |  |  | 
CC(C)C[C@H](NC(=O)[C@H](Cc1ccccc1)NC(=O)[C@H](CCCNC(=N)N)NC(=O)[C@H](CCC(N)=O)NC(=O)[C@@H](NC(=O)[C@H](C)NC(=O)[C@H](C)NC(=O)[C@@H](NC(=O)[C@H](CCC(=O)O)NC(=O)[C@H](CCCCNC(=O)COCCOCCNC(=O)COCCOCCNC(=O)CC[C@H](NC(=O)CCCCCCCCCCCCCCCCCCC(=O)O)C(=O)O)NC(=O)[C@H](CC(C)C)NC(=O)[C@H](Cc1ccc(O)cc1)NC(=O)[C@H](CO)NC(=O)[C@@H](NC(=O)[C@H](CC(=O)O)NC(=O)[C@H](CO)NC(=O)[C@@H](NC(=O)[C@H](Cc1ccccc1)NC(=O)[C@@H](NC(=O)CNC(=O)[C@H](CCC(=O)O)NC(=O)C(C)(C)NC(=O)[C@@H](N)Cc1c[nH]cn1)[C@@H](C)O)[C@@H](C)O)C(C)C)[C@@H](C)O)[C@@H](C)O)C(=O)N[C@@H](CCC(=O)O)C(=O)N[C@@H](Cc1c[nH]cn1)C(=O)N[C@@H](CC(C)C)C(=O)N[C@H](C(N)=O)C(C)C [compound 4] (H-H[Aib]EGTFTSDVSYLK([AEEA-AEEA-γGlu-C20 diacid])ETAATQRFLEHLV-NH2) |  |  |  | 0.08 | 32222 |  |  |  | 13928 |  |  | 0.00794 | 100
CC(C)C[C@H](NC(=O)[C@H](Cc1ccccc1)NC(=O)[C@H](CCCNC(=N)N)NC(=O)[C@H](CCC(N)=O)NC(=O)C(C)(C)NC(=O)[C@H](C)NC(=O)[C@H](C)NC(=O)[C@H](CCC(=O)O)NC(=O)[C@H](CCC(=O)O)NC(=O)[C@H](CCCCNC(=O)COCCOCCNC(=O)COCCOCCNC(=O)CC[C@H](NC(=O)CCCCCCCCCCCCCCCCCCC(=O)O)C(=O)O)NC(=O)[C@H](CC(C)C)NC(=O)[C@H](Cc1ccccc1)NC(=O)[C@H](CO)NC(=O)[C@@H](NC(=O)[C@H](CC(=O)O)NC(=O)[C@H](CO)NC(=O)[C@@H](NC(=O)[C@H](Cc1ccccc1)NC(=O)[C@@H](NC(=O)CNC(=O)[C@H](CCC(=O)O)NC(=O)C(C)(C)NC(=O)[C@@H](N)Cc1c[nH]cn1)[C@@H](C)O)[C@@H](C)O)C(C)C)C(=O)N[C@@H](CCC(=O)O)C(=O)N[C@@H](Cc1c[nH]cn1)C(=O)N[C@@H](CC(C)C)C(=O)N[C@H](C(N)=O)C(C)C [compound 37] (H-H[Aib]EGTFTSDVSFLK([AEEA-AEEA-γGlu-C20 diacid])EEAA[Aib]QRFLEHLV-NH2) |  |  |  | 0.08 | 12367 |  |  |  | 158052 | 0.0126 | 2000 |  | 
